Measurements as given in patent US20090053138A1, “Stabilized Aptamers to Platelet Derived Growth Factor and their Use as Oncology Therapeutics” (priority 2002, published 2009).

Assay: Pharmacokinetics of ARC126 5′ PEG conjugates in mice
Settings: IV administration at 10 mg/kg in mice
Description: The pharmacokinetic (PK) data shown in FIG. 12A was subjected to non-compartmental analysis (NCA) using the industry-standard software package WinNonLin™ v.4.0 (Pharsight Corp., Mountain View, Calif.). […] The pharmacokinetic (PK) data shown in FIG. 12B was subjected to noncompartmental analysis (NCA) using the industry-standard software package WinNonLin™ v.4.0 (Pharsight Corp., Mountain View, Calif.).
The pharmacokinetic (PK) data shown in FIG. 12B was subjected to noncompartmental analysis (NCA) using the industry-standard software package WinNonLin™ v.4.0 (Pharsight Corp., Mountain View, Calif.).

With “5′-[20K PEG]-(SEQ ID NO:1)-HEG-(SEQ ID NO:2)-HEG-(SEQ ID NO:3)-3′-dT-3′ (chain 1 CAGGCUACG; chain 2 CGTAGAGCAUCA; chain 3 TGATCCUG; 5′ 20 kDa PEG; HEG spacers; 3′ dT cap; synthetic aptamer; modified_base (6)..(6) uridine is 2′-fluoro; modified_base (8)..(8) cytidine is 2′-fluoro; modified_base (9)..(9) gm; modified_base (5)..(5) gm; modified_base (7)..(7) gm; modified_base (10)..(10) uridine is 2′-fluoro; modified_base (11)..(11) cytidine is 2′-fluoro; modified_base (12)..(12) adenosine is 2′-O-Methyl; modified_base (5)..(6) cytidine is 2′-fluoro; modified_base (7)..(7) uridine is 2′-fluoro; modified_base (8)..(8) gm) [ARC240]” the Cmax was 34.3 µM, the “MRT” value was 1.16 h and the “Vs” value was 0.0003 L/kg. For the same substance, the “t1/2” value was 0.94 h.
